Data: ChEMBL document CHEMBL1124105, “Analogues of gamma-hydroxybutyric acid. Synthesis and binding studies” (J Med Chem, 1988)
The source made the active and inactive calls. No cut-off for these calls is given here.

Tests used:
[1] = target: T1, Gamma-hydroxybutyrate receptor (Rattus norvegicus) (UniProt Q6RY99); details: at 10 µM
T1 sequence (whole entry): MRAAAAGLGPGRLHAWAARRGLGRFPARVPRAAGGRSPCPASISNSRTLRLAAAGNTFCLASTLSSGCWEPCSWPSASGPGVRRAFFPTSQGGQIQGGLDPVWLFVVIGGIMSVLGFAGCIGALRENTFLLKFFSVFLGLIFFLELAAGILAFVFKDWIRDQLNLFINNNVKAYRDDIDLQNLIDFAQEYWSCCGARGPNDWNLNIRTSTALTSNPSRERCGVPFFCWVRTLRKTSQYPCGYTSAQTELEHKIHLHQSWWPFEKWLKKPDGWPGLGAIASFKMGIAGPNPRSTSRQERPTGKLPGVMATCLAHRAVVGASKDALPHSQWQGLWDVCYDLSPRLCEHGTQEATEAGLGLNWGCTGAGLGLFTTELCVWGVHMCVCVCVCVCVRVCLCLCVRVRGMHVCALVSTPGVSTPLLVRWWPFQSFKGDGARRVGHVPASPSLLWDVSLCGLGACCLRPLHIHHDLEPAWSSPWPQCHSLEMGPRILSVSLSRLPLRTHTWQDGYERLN

[2] = target: T1, Gamma-hydroxybutyrate receptor (Rattus norvegicus); details: at 1 µM
[3] = target: T1, Gamma-hydroxybutyrate receptor (Rattus norvegicus); details: at 10 µM; remark: listed apart in the source

SMILES	inhibition [1]	inhibition [2]	inhibition [3]
O=C(O)/C=C/CO	64%	44%	
O=S(=O)([O-])CCO.[Na+]			inactive
CC(O)CCC(=O)O (configuration not stated)	63%	12%	
O=C1C=CCO1			inactive
CC(CCO)C(=O)O (configuration not stated)	24%		
O=S(=O)(O)CCCCO			inactive
O=S(=O)(O)CCCO			inactive
O=C(O)CCC(O)c1ccccc1 (configuration not stated)	56%	13%	
O=C(O)CCCO	55%	35%	
O=C1CCCO1			inactive
O=C(O)CC(CO)Cc1ccccc1 (configuration not stated)			inactive
C/C(=C\C(=O)O)CO	55%	11%	inactive
CC(C)C(CO)CC(=O)O (configuration not stated)			inactive
O=C(O)C(CCO)c1ccccc1 (configuration not stated)			inactive
CC(CO)C(C)C(=O)O (configuration not stated)			inactive
O=C(O)/C=C(/CO)c1ccccc1	34%	21%	
O=C(O)CCCCO	53%	22%	
O=C(O)/C=C/C(O)C1CCCCC1 (configuration not stated)	46%	13%	
CCC(CO)CC(=O)O (configuration not stated)	43%		
O=C(O)/C=C/C(O)c1ccccc1 (configuration not stated)	70%	39%	
O=C(O)CCO			inactive
C=C(C)[C@@H]1[C@H]2OC(=O)[C@@H]1[C@]1(O)C[C@H]3OC34C(=O)O[C@H]2[C@@]41C.CC(C)(O)[C@@H]1[C@H]2OC(=O)[C@@H]1[C@]1(O)C[C@H]3OC34C(=O)O[C@H]2[C@@]41C (some centres not stated)			inactive
CCCC(CO)CC(=O)O (configuration not stated)	5%		
O=C(O)CC(CO)c1ccccc1 (configuration not stated)			inactive
NCCCC(=O)O			inactive
OCCCCO			inactive
CC(CO)CC(=O)O (configuration not stated)	59%		
